According to US20250230193A1, “CYCLIC COMPOUND HAVING SELECTIVE KRAS INHIBITORY EFFECT ON HRAS AND NRAS” (CHUGAI SEIYAKU KABUSHIKI KAISHA, priority 2022, published 2025):
Where a SMILES comes first, the peptide text is derived from it. Bridges are numbered along the chain shown (N, C = ends). [ ]: non-standard residue; d: D form. The star is where a group is joined. hPhe(3-Cl-4-CF3) = N[C@@H](CCc1ccc(C(F)(F)F)c(Cl)c1)C(=O)O; NEtPhe(4-Me) = CCN[C@@H](Cc1ccc(C)cc1)C(=O)O; NMePhe(4-Me) = CN[C@@H](Cc1ccc(C)cc1)C(=O)O; NMeGly(cPent) = CN[C@H](C(=O)O)C1CCCC1; NMeD = CN[C@@H](CC(=O)O)C(=O)O; NMeL = CN[C@@H](CC(C)C)C(=O)O; Morpholide = C1CN(*)CCO1; NMeA = CN[C@@H](C)C(=O)O; Ac5c = NC1(C(=O)O)CCCC1; Aze = O=C(O)[C@@H]1CCN1; NBuGly = CCCCNCC(=O)O; NPrGly = CCCNCC(=O)O; NEtG = CCNCC(=O)O; Sar = CNCC(=O)O

Assays:
[1] = target: GDP-bound NRAS wild-type protein (Homo sapiens, UniProt P01111); assay: Binding to NRAS by surface plasmon resonance (SPR), Single Cycle Kinetics; details: KD ratio NRAS/KRAS, SPR
GDP-bound NRAS wild-type protein, sequence (P01111 whole entry): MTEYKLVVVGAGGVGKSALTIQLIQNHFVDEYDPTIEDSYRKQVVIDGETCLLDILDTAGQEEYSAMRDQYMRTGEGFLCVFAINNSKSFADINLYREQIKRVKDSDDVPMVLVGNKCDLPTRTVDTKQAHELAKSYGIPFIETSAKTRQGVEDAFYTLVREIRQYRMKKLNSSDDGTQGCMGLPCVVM

[2] = target: GDP-bound HRAS wild-type protein (Homo sapiens, UniProt P01112); assay: Binding to HRAS by surface plasmon resonance (SPR), Single Cycle Kinetics; details: KD ratio HRAS/KRAS, SPR
GDP-bound HRAS wild-type protein, sequence (P01112 whole entry): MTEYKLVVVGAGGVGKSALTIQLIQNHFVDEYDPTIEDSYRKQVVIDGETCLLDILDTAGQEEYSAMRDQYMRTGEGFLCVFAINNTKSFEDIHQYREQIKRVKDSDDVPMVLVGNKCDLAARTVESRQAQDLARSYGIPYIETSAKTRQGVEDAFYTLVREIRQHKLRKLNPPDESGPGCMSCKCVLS

SMILES	NRAS/KRAS (ratio of KD for GDP-bound NRAS wild-type to KD for KRAS) [1]	HRAS/KRAS (ratio of KD for GDP-bound HRAS wild-type to KD for KRAS) [2]
CC[C@H](C)[C@@H]1NC(=O)[C@H](CC(C)C)N(C)C(=O)C[C@@H](C(=O)N2CCOCC2)N(C)C(=O)[C@H](CC(C)C)N(C)C(=O)C2(CCCC2)NC(=O)[C@@H]2CCCN2C(=O)[C@H](CCc2ccc(C(F)(F)F)c(Cl)c2)NC(=O)CN(C)C(=O)[C@H](Cc2ccc(C)cc2)N(CC)C(=O)[C@@H]2CCN2C(=O)[C@H](C)N(C)C1=O [PP0016] ([NMeL]I[NMeA][Aze][NEtPhe(4-Me)][Sar][hPhe(3-Cl-4-CF3)]P[Ac5c][NMeL][NMeD]-Morpholide; lactam N-11)	C (A compound having a KD ratio of 0.1 or more and less than 3 is denoted as C)	C (A compound having a KD ratio of 0.1 or more and less than 3 is denoted as C)
CC[C@H](C)[C@@H]1NC(=O)[C@H](CC(C)C)N(C)C(=O)C[C@@H](C(=O)N2CCOCC2)N(C)C(=O)[C@H](C2CCCC2)N(C)C(=O)C2(CCCC2)NC(=O)[C@@H]2CCCN2C(=O)[C@H](CCc2ccc(C(F)(F)F)c(Cl)c2)NC(=O)CN(C)C(=O)[C@H](Cc2ccc(C)cc2)N(C)C(=O)CN(C)C(=O)CN(C)C1=O [PP0018] ([NMeL]I[Sar][Sar][NMePhe(4-Me)][Sar][hPhe(3-Cl-4-CF3)]P[Ac5c][NMeGly(cPent)][NMeD]-Morpholide; lactam N-11)	C (A compound having a KD ratio of 0.1 or more and less than 3 is denoted as C)	C (A compound having a KD ratio of 0.1 or more and less than 3 is denoted as C)
CC[C@H](C)[C@@H]1NC(=O)[C@H](CC(C)C)N(C)C(=O)C[C@@H](C(=O)N2CCOCC2)N(C)C(=O)[C@H](C2CCCC2)N(C)C(=O)C2(CCCC2)NC(=O)[C@@H]2CCCN2C(=O)[C@H](CCc2ccc(C(F)(F)F)c(Cl)c2)NC(=O)CN(C)C(=O)[C@H](Cc2ccc(C)cc2)N(C)C(=O)CN(CC)C(=O)CN(C)C1=O [PP0019] ([NMeL]I[Sar][NEtG][NMePhe(4-Me)][Sar][hPhe(3-Cl-4-CF3)]P[Ac5c][NMeGly(cPent)][NMeD]-Morpholide; lactam N-11)	C (A compound having a KD ratio of 0.1 or more and less than 3 is denoted as C)	C (A compound having a KD ratio of 0.1 or more and less than 3 is denoted as C)
CCCN1CC(=O)N(C)[C@@H](Cc2ccc(C)cc2)C(=O)N(C)CC(=O)N[C@@H](CCc2ccc(C(F)(F)F)c(Cl)c2)C(=O)N2CCC[C@H]2C(=O)NC2(CCCC2)C(=O)N(C)[C@@H](C2CCCC2)C(=O)N(C)[C@H](C(=O)N2CCOCC2)CC(=O)N(C)[C@@H](CC(C)C)C(=O)N[C@@H]([C@@H](C)CC)C(=O)N(C)CC1=O [PP0020] ([NMeL]I[Sar][NPrGly][NMePhe(4-Me)][Sar][hPhe(3-Cl-4-CF3)]P[Ac5c][NMeGly(cPent)][NMeD]-Morpholide; lactam N-11)	C (A compound having a KD ratio of 0.1 or more and less than 3 is denoted as C)	C (A compound having a KD ratio of 0.1 or more and less than 3 is denoted as C)
CCCCN1CC(=O)N(C)[C@@H](Cc2ccc(C)cc2)C(=O)N(C)CC(=O)N[C@@H](CCc2ccc(C(F)(F)F)c(Cl)c2)C(=O)N2CCC[C@H]2C(=O)NC2(CCCC2)C(=O)N(C)[C@@H](C2CCCC2)C(=O)N(C)[C@H](C(=O)N2CCOCC2)CC(=O)N(C)[C@@H](CC(C)C)C(=O)N[C@@H]([C@@H](C)CC)C(=O)N(C)CC1=O [PP0021] ([NMeL]I[Sar][NBuGly][NMePhe(4-Me)][Sar][hPhe(3-Cl-4-CF3)]P[Ac5c][NMeGly(cPent)][NMeD]-Morpholide; lactam N-11)	C (A compound having a KD ratio of 0.1 or more and less than 3 is denoted as C)	C (A compound having a KD ratio of 0.1 or more and less than 3 is denoted as C)
